Data on one compound can be found in patent US5409899A, “Pseudopeptide compounds having anti-inflammatory activity” (Adir et Compagnie, priority 1992, dated 1995).

SMILES strings stand for the structures. Structures can show the parent of a compound that is named as a salt. Square brackets hold non-standard residues; d marks the D form. Peptide text beside a SMILES is read from it. * marks the point of attachment. Benzoyl(4-guanidino) = N=C(N)Nc1ccc(C(=O)*)cc1; Oic = O=C(O)[C@@H]1C[C@@H]2CCCC[C@@H]2N1; Hyp = O=C(O)[C@@H]1C[C@@H](O)CN1; dTic = O=C(O)[C@H]1Cc2ccccc2CN1; 2Thi = N[C@@H](Cc1cccs1)C(=O)O

The experiment addresses T1, B2 receptor (Oryctolagus cuniculus, UniProt Q28642).
T1 construct: rabbit jugular vein: B2 receptor; from tissue; host or cells: rabbit jugular vein
T1 sequence (Q28642 1-367): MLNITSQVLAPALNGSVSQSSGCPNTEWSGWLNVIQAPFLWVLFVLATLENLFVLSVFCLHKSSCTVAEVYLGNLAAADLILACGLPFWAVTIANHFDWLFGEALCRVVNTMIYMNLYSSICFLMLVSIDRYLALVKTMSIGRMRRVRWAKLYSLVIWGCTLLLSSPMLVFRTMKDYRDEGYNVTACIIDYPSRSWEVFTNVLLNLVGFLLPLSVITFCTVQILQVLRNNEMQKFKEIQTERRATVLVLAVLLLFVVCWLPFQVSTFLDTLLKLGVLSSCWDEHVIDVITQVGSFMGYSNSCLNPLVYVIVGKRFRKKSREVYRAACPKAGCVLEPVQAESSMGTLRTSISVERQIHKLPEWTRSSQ
Nature of the experiment: Inhibition of bradykinin-induced contraction of rabbit jugular vein (B2 receptor). The experiment is classed as cell-based. As to conditions: read-out: pA2 (negative logarithm of the molar concentration which necessitates a doubling of the bradykinin concentration to obtain the same effect) (converted). The source says:
Pharmacological study of the compound of the invention: rabbit jugular vein: B2 receptor

In the case of `N=C(N)NCCC[C@H](NC(=O)[C@@H]1C[C@@H]2CCCC[C@@H]2N1C(=O)[C@H]1Cc2ccccc2CN1C(=O)[C@H](CO)NC(=O)[C@H](Cc1cccs1)NC(=O)CNC(=O)[C@@H]1C[C@@H](O)CN1C(=O)[C@@H]1CCCN1C(=O)[C@H](CCCNC(=N)N)NC(=O)c1ccc(NC(=N)N)cc1)C(=O)O` [Example 1, G-Arg-Pro-Hyp-Gly-Thia-Ser-(D)Tic-Oic-Arg-OH trifluoroacetate] ({Benzoyl(4-guanidino)}-RP[Hyp]G[2Thi]S[dTic][Oic]R-OH), the Kb is 0.186 nM.
